Converted amounts (≈) assume the structure as drawn.
What was measured:
[1] = Volume of distribution at steady state in rat; type: ADME, organism-based; conditions: in vivo, read-out: Vdss
[2] = molecular target: Transient receptor potential cation channel subfamily M member 8 (Homo sapiens, UniProt Q7Z2W7); test: Inhibition of human TRPM8
[3] = Inhibition of sodium channel site 2 (unknown origin); design: species or system Homo sapiens
Cytochrome P450 2C8 = molecular target: T1, Cytochrome P450 2C8 (Homo sapiens, UniProt P10632); test: Inhibition of CYP2C8 (unknown origin); type: ADME
T1 sequence (P10632 whole entry): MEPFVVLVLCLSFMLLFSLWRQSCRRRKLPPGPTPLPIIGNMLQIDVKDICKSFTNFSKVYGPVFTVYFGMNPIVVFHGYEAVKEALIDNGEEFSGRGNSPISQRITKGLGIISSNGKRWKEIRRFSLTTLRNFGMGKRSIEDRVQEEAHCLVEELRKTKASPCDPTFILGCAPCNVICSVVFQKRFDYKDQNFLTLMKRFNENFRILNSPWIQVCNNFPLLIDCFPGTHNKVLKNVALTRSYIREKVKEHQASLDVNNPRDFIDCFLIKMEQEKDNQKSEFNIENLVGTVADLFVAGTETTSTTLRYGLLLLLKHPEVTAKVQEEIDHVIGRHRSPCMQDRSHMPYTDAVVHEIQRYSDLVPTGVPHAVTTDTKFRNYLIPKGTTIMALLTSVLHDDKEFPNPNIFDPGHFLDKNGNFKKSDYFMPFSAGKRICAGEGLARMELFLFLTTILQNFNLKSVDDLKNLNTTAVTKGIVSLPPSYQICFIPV

[4] = Stability in human liver microsomes assessed as metabolic turnover number at 10 uM after 15 mins by LC-MS/UV analysis; type: ADME, microsome; conditions: read-out: Stability
[5] = Drug uptake in Sprague-Dawley rat skin epidermal layer at 0.68 mg applied topically measured after 24 hrs; type: ADME, tissue-based, Skin epidermis; conditions: topical or ocular, read-out: Drug uptake
[6] = Lipophilicity, log D of the compound; type: physicochemical; conditions: octanol/water
Hepatocyte [7] = test: Stability in rat hepatocytes; type: ADME, cell-based
Cytochrome P450 2C19 = Cytochrome P450 2C19 (Homo sapiens, UniProt P33261); test: Inhibition of CYP2C19 (unknown origin); type: ADME
Cytochrome P450 2D6 = Cytochrome P450 2D6 (Homo sapiens, UniProt P10635); test: Inhibition of CYP2D6 (unknown origin); type: ADME
[8] = Kinetic solubility of the compound at pH 6.5; type: physicochemical; conditions: buffer, read-out: Kinetic_solubility
[9] = Ratio of permeability from basolateral to apical side over apical to basolateral side in RRCK cells expressing MDR1; type: ADME, cell-based, Canis lupus familiaris; conditions: dog, mdckii-le
[10] = Stability in dog plasma; type: ADME, cell-free, Canis lupus familiaris; conditions: read-out: Stability
[11] = molecular target: Transient receptor potential cation channel subfamily V member 1 (Homo sapiens, UniProt Q8NER1); test: Inhibition of human TRPV1
[12] = Drug uptake in Sprague-Dawley rat skin dermal layer at 0.68 mg applied topically measured after 24 hrs; type: ADME, tissue-based, Dermis; conditions: topical or ocular, read-out: Drug uptake
[13] = molecular target: Voltage-gated inwardly rectifying potassium channel KCNH2 (Homo sapiens, UniProt Q12809); test: Inhibition of dofetilide binding to human ERG
[14] = molecular target: Transient receptor potential cation channel subfamily A member 1 (Mus musculus, UniProt Q8BLA8); test: Antagonist activity at mouse TRPA1 by electrophysiology assay
[15] = molecular target: Sodium channel protein type 5 subunit alpha (Homo sapiens, UniProt Q14524); test: Inhibition of Nav1.5 (unknown origin)
[16] = Passive permeability of the compound in RRCK cells; type: ADME, cell-based, Canis lupus familiaris, MDCKII-LE; conditions: dog, MDCK; read-out: permeability
Cytochrome P450 1A2 = molecular target: T2, Cytochrome P450 1A2 (Homo sapiens, UniProt P05177); test: Inhibition of CYP1A2 (unknown origin); type: ADME
T2 sequence (P05177 whole entry): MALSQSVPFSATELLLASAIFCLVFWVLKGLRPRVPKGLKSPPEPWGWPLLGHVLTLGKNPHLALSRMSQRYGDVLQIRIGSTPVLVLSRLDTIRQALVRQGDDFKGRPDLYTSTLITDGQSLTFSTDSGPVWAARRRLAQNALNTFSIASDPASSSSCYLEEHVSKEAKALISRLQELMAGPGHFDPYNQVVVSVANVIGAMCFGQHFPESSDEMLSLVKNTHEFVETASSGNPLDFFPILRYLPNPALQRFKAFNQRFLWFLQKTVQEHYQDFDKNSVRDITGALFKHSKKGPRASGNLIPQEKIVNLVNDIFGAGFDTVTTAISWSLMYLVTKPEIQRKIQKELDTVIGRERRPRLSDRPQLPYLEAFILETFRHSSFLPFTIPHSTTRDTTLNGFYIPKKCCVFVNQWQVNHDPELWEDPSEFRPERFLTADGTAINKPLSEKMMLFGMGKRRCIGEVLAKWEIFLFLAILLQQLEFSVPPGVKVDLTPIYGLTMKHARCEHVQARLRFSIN

[17] = Antagonist activity at opossum TRPA1 hS5 chimera containing (867 to 983 residues) expressed in 293-T-REx cells at holding potential of 15 mV measured after 1 min by PatchXpress electrophysiology assay; type: cell-based; conditions: Monodelphis domestica, 293Trex
[18] = molecular target: T3, Transient receptor potential cation channel subfamily A member 1 (Homo sapiens, UniProt O75762); test: Antagonist activity at human TRPA1 by electrophysiology assay
[19] = molecular target: T4, Potassium voltage-gated channel subfamily KQT member 1 (Homo sapiens, UniProt P51787); test: Inhibition of KvLQT1 (unknown origin)
T4 sequence (P51787 whole entry): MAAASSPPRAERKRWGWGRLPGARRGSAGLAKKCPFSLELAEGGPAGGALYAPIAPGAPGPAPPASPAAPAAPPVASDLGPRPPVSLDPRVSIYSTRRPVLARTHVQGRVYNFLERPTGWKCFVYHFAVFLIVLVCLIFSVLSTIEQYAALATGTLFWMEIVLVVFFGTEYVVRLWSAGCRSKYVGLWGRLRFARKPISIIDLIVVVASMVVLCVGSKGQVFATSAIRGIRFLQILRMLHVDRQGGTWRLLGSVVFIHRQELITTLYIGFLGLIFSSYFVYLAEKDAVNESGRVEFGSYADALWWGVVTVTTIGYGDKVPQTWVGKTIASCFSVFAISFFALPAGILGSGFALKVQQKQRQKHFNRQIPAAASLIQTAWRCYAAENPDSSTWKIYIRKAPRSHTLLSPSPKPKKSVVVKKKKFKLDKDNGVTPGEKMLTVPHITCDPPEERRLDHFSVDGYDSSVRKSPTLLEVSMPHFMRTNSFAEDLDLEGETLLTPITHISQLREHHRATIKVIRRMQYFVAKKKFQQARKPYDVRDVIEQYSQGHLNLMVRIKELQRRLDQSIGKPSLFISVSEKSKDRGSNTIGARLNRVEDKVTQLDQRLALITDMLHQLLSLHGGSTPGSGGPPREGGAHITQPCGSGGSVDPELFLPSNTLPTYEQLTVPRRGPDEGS

Hepatocyte [20] = test: Stability in human hepatocytes; type: ADME, cell-based
[21] = molecular target: T3, Transient receptor potential cation channel subfamily A member 1; test: Antagonist activity at human TRPA1 oS5 chimera containing (870 to 896 residues) expressed in 293-T-REx cells at holding potential of 15 mV measured after 1 min by PatchXpress electrophysiology assay; type: cell-based
Cytochrome P450 2C9 = Cytochrome P450 2C9 (Homo sapiens, UniProt P11712); test: Inhibition of CYP2C9 (unknown origin); type: ADME
Sequence of Cytochrome P450 2C9 (P11712 whole entry): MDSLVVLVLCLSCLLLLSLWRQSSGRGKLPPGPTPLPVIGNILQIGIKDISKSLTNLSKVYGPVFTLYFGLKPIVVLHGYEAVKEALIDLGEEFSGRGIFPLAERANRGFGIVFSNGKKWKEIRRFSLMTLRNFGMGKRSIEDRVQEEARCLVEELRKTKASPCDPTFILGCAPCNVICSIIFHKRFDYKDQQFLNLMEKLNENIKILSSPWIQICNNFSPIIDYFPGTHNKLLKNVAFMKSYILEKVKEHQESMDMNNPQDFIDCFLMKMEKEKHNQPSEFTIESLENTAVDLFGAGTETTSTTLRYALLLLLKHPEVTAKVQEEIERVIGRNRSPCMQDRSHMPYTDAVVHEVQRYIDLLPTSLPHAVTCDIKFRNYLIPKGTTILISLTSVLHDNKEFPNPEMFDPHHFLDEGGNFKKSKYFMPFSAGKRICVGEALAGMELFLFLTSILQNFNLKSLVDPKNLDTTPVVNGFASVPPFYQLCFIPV

Sequence of Cytochrome P450 2D6 (P10635 whole entry): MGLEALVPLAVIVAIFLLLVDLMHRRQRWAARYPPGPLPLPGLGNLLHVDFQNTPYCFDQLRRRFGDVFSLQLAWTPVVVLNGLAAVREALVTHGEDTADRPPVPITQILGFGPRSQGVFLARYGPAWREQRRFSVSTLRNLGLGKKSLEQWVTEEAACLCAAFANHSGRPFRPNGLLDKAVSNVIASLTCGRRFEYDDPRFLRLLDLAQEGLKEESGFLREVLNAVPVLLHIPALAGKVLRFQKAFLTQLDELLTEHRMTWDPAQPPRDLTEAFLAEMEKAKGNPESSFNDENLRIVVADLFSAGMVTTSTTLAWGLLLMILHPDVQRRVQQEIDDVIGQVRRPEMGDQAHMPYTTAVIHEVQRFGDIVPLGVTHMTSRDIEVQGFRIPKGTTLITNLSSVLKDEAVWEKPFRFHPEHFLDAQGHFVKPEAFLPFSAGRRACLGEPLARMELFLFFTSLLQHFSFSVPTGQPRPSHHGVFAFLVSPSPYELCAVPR
Sequence of Transient receptor potential cation channel subfamily A member 1 (Mus musculus, UniProt Q8BLA8) (Q8BLA8 whole entry): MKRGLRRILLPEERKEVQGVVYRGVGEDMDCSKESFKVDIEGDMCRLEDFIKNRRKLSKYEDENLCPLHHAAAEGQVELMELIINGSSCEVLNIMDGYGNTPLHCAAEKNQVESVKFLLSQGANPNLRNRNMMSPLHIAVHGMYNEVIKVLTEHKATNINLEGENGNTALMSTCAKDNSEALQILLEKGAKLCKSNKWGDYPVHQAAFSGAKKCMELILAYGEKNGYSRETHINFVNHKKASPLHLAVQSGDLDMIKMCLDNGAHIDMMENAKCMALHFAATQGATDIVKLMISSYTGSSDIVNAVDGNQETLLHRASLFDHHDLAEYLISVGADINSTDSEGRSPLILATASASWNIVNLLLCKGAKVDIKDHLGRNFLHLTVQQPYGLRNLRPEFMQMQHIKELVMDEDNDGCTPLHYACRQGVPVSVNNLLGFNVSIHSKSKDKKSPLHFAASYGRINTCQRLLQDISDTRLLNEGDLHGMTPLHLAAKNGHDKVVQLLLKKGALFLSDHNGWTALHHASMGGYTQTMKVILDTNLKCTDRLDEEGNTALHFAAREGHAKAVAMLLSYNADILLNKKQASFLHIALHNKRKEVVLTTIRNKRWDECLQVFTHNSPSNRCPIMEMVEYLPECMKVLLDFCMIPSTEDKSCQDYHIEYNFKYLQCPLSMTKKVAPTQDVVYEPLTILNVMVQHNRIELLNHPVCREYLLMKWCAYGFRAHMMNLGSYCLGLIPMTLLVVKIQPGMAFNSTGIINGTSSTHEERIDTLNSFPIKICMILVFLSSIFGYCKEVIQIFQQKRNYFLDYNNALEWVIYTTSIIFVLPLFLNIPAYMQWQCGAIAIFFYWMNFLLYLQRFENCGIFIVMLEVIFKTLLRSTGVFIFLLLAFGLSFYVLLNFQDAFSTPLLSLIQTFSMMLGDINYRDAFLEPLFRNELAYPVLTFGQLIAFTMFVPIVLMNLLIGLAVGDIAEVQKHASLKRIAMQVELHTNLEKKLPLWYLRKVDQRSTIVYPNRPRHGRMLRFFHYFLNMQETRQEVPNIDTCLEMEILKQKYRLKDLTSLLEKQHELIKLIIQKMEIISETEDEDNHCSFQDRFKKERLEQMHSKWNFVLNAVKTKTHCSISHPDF
T3 sequence (O75762 whole entry): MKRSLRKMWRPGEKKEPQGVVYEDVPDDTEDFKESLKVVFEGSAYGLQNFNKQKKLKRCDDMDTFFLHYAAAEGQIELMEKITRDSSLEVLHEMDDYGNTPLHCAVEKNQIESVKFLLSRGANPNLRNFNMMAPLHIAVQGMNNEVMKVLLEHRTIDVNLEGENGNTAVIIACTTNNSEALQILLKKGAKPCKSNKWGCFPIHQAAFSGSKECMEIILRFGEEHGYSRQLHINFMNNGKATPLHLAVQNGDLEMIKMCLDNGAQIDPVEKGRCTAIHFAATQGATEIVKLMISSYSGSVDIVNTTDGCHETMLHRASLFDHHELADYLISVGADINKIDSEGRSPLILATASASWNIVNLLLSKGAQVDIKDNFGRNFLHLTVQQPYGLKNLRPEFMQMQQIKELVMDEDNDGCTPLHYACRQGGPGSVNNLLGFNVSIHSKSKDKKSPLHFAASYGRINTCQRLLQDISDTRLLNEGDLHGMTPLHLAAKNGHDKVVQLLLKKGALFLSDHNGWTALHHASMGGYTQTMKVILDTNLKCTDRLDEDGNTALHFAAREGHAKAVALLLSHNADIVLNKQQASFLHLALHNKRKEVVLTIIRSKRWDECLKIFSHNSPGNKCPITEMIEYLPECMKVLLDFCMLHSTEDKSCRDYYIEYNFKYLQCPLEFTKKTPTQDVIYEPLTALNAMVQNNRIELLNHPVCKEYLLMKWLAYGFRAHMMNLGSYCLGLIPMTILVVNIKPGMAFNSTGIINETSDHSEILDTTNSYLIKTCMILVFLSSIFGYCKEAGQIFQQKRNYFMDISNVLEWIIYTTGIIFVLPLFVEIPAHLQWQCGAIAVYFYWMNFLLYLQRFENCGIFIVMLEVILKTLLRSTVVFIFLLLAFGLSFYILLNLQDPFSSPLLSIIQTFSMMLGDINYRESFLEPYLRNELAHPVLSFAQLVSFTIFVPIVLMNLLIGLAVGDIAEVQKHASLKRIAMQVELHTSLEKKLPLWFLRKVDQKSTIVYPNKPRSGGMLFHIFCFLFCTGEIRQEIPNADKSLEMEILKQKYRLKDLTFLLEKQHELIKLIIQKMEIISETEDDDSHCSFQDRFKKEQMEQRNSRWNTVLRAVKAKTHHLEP
Sequence of Cytochrome P450 2C19 (P33261 whole entry): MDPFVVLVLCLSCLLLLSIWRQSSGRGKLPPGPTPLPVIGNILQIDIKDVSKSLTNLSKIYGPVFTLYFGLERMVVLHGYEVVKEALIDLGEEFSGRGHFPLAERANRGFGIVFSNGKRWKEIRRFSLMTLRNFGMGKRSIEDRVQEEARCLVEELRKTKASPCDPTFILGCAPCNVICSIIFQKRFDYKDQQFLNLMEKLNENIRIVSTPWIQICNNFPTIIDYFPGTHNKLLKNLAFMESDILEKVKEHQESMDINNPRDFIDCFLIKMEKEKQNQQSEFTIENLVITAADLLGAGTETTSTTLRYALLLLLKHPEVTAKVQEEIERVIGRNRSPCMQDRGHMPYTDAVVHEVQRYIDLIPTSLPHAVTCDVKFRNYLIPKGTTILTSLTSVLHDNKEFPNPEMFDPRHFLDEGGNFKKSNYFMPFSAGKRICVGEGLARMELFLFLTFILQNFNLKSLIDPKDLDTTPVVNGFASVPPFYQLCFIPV
Sequence of Transient receptor potential cation channel subfamily V member 1 (Q8NER1 whole entry): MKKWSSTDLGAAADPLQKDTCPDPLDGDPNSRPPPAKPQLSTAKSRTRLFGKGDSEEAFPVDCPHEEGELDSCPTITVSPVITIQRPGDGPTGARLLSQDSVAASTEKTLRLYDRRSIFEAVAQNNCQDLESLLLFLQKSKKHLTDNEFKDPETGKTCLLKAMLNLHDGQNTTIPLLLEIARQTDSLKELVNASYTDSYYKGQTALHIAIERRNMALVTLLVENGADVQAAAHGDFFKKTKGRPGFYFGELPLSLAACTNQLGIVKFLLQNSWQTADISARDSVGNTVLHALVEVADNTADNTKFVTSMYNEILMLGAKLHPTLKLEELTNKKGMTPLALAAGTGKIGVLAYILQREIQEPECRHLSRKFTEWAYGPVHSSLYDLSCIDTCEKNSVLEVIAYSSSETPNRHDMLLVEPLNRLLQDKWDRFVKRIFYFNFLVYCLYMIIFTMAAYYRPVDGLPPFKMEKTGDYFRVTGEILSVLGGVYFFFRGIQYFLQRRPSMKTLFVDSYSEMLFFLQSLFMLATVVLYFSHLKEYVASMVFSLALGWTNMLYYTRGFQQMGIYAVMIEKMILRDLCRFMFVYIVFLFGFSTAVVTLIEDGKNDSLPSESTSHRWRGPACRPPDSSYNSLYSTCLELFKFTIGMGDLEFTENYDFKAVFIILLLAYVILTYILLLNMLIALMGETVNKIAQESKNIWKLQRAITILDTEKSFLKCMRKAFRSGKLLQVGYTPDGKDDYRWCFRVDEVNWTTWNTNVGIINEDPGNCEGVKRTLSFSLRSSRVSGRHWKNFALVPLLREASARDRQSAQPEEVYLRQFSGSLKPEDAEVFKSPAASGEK

Vd [1]: 3.99 L/kg | IC50 [2]: > 3 µM | IC50 [3]: 0.73 µM | IC50 (Cytochrome P450 2C8): 11.8 µM | microsomal CLint at 10 µM [4]: 246 µL/min/mg | concentration at 24 h [5]: 3.13e+06 ng/g | logD [6]: 4.7 to 5 | Stability (Hepatocyte [7]): 30 µL/min/mg | IC50 (Cytochrome P450 2C19): 3.15 µM | IC50 (Cytochrome P450 2D6): 0.45 µM | solubility kinetic [8]: 12 µM (≈ 6.11 µg/mL) | Ratio [9]: 11 | half-life [10]: > 6 h | IC50 [11]: > 3 µM | concentration at 24 h [12]: 640000 ng/g | IC50 [14]: 0.004 µM | Papp [16]: 1 ×10⁻⁶ cm/s | IC50 (Cytochrome P450 1A2): > 30 µM | IC50 [17]: 0.02 µM | IC50 [18]: 0.0007 µM | INH [19]: > 3000 nM | Stability (Hepatocyte [20]): 38 µL/min/mg | IC50 [21]: 1.58 µM | IC50 (Cytochrome P450 2C9): 11.4 µM
SMILES: O=C(NC[C@@H](Cc1ccccc1)N1CCC(O)(C(F)(F)F)CC1)C1(c2ccc(Cl)cc2)CCCC1
Ki [13]: 25.7 µM | INH [15]: > 3000 nM

— ChEMBL document CHEMBL4190175 (Medchemcomm, 2016)
